Results published in ChEMBL document CHEMBL1201862, “PubChem BioAssay data set” (2004).
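Dose response: 5 concentrations. Exposure: 48 h. Format: 96-well plates. Endpoint: linear interpolation; highest concentration if not reached. GI50 is the concentration that inhibits growth by half.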 Calls of active or inactive are those of the source. Rule as the data show it: active = GI50 up to about 1.1 µM and inactive = higher.

Experiments:
Test in all cases: inhibition of tumour cell growth, NCI panel, 48 h
EKVX = system: EKVX
K562 = system: K562
UACC-257 = system: UACC-257
OVCAR-3 = system: OVCAR-3
MOLT-4 = system: MOLT-4
MCF7 = system: MCF7
SNB-75 = system: SNB-75
SW-620 = system: SW-620
SF-295 = system: SF-295
SNB-19 = system: SNB-19
A549 = system: A549
SR = system: SR
U-251 = system: U-251
HT-29 = system: HT-29
HCT-15 = system: HCT-15
HCT-116 = system: HCT-116
NCI-H23 = system: NCI-H23
KM-20L2 = system: KM-20L2
UACC-62 = system: UACC-62
NCI-H522 = system: NCI-H522

SMILES | GI50 (EKVX) | GI50 (K562) | GI50 (UACC-257) | GI50 (OVCAR-3) | GI50 (MOLT-4) | GI50 (MCF7) | GI50 (SNB-75) | GI50 (SW-620) | GI50 (SF-295) | GI50 (SNB-19) | GI50 (A549) | GI50 (SR) | GI50 (U-251) | GI50 (HT-29) | GI50 (HCT-15) [µM] | GI50 (HCT-116) | GI50 (NCI-H23) | GI50 (KM-20L2) | GI50 (UACC-62) | GI50 (NCI-H522)
O=C1OC(c2ccccc2)=N/C1=C/c1cccs1 | > 100 µM (inactive) | 30.4 µM (inactive) | 65.6 µM (inactive) | 26.8 µM (inactive) | 14.5 µM (inactive) | > 100 µM (inactive) | 42.4 µM (inactive) | > 100 µM (inactive) | > 100 µM (inactive) | 61.9 µM (inactive) | > 100 µM (inactive) | 70 µM (inactive) | 59.8 µM (inactive) | > 100 µM (inactive) | 36.7 | – | – | – | – | –
CCCCCCc1cn([C@H]2C[C@H](O)[C@@H](CO)O2)c(=O)[nH]c1=O | > 100 µM (inactive) | > 100 µM (inactive) | > 100 µM (inactive) | > 100 µM (inactive) | – | > 100 µM (inactive) | > 100 µM (inactive) | > 100 µM (inactive) | > 31.6 µM (inactive) | > 100 µM (inactive) | > 100 µM (inactive) | – | > 100 µM (inactive) | > 100 µM (inactive) | > 100 | > 100 µM (inactive) | > 100 µM (inactive) | > 100 µM (inactive) | > 31.6 µM (inactive) | > 100 µM (inactive)
